The values below come from PMC12040169 (PLOS Biology, 2025).

This data set is described as follows: in vitro. The note with it: human, hela cells, % viability.

A word on the viability: it is a read-out of living cells in per cent, often relative to untreated cells. As to `COc1ccc(Cl)cc1C1(CNC(=O)C2CCC(N)C2)CCOCC1` (stereo not shown) [CBK305523], the viability at 28.5 h, 10 µM was 85.9%.
In the case of `Cc1cc(Oc2ccc(N(C)C)cc2)cc(C2CCCNC2)n1` (stereo not shown) [CBK283442], the viability at 28.5 h, 10 µM came to 101%.
The figure for `COC(=O)NC(O)C(=O)c1ccco1` (stereo not shown) [CBK027757] is 94.7%; for `COc1ccc(Cn2nc(NS(=O)(=O)c3ccc(-c4ccon4)s3)c3ccccc32)cc1` [CBK048031] it is 92.9%.
The value for `Nc1ccc(-c2nc(NC(=O)Cc3ccccc3)cnc2-c2ccc(F)c(Cl)c2)cc1` [CBK036690] was 89.5%.
The value for `O=S(=O)(NCc1ccccc1)c1cccc(S(=O)(=O)NCc2ccccc2)c1` [CBK263250] was 91.5%; that for `COc1ccccc1C1OC(=O)CC1C(=O)N1CCN(c2ccc(C(F)(F)F)cc2)CC1` (stereo not shown) [CBK091313] was 111%; that for `C1CN2CCC1/C(=N\Nc1nnn[nH]1)C2` [CBK019005C] was 93.8%.
With `Cc1ccc(CNC(=O)Cn2nnc(-c3ccc(CNCC(F)(F)F)cc3)n2)cc1` [CBK153204T], the viability at 28.5 h, 10 µM was 116%.
The value for `CN(CC(=O)NNC(=O)c1ccc(C(C)(C)C)cc1)S(=O)(=O)c1cc(Cl)ccc1Cl` [CBK267376] was 107%.
The value for `O=c1nc(NN=C2CCCCC2)cn[nH]1` [CBK018838] was 90.8%; that for `O=C(O)COc1ccccc1/C=N/n1c(S)nnc1-c1ccc(Cl)cc1Cl` [CBK264418] was 89.5%; that for `CN(C)CCNc1nc(-c2cncnc2)cnc1N` [CBK063661] was 97.8%.
The figure for `COc1ccc(N2C(=O)CC(NCCNc3ccc([N+](=O)[O-])cn3)C2=O)cc1` (stereo not shown) [CBK263593] is 85.3%.
Consider `Cc1nc2cccnc2n1C1CCN(C(=O)C(C)(C)C)CC1` [CBK282426], for which the viability at 28.5 h, 10 µM worked out at 89.2%.
The figure for `CCOC(=O)NC(=S)NC(=O)C(C)(C)C` [CBK020037] is 100%.
`O=C(Nc1ccc2nc(-c3ccco3)c(-c3ccco3)nc2c1)N1CCCCCC1` [CBK267253]: the viability at 28.5 h, 10 µM turned out to be 85.4%.
The figure for `O=C([C@@H]1Cc2c([nH]c3ccccc23)C2(CCN(Cc3ccccc3)C2)N1)N1CCOCC1` (stereo partly shown) [CBK059363T] is 97.3%; for `CCN(CCn1cccn1)c1nc2nonc2nc1NC1CCCC1` [CBK307589] it is 106%; for `CCc1nn(CC(=O)N(C)C)c(=O)c2cc3oc(C)cc3n12` [CBK283576] it is 114%.
The value for `Cc1nc(C)c(C(C)NCc2c(C(C)C)nn(C)c2N(C)C)s1` (stereo not shown) [CBK304005] was 74.3%.
The figure for `COc1cccc(-c2nnc(NC(=O)c3ccc4c(c3)OCCO4)o2)c1` [CBK287591] is 108%; for `CCc1nn(CC(=O)N(C)C)c(=O)c2cc3sccc3n12` [CBK284031] it is 91.3%; for `Cc1ccc(-c2cc(C(=O)NCCCn3ccnc3)no2)cc1` [CBK268200] it is 102%.
With `CC(C)=NNC(=O)CSc1nc(N2CCOCC2)c2ccccc2n1` [CBK009114], the viability at 28.5 h, 10 µM is 85.2%.
The value for `N#CC1=C(N)n2c(s/c(=C\c3ccc(O)cc3)c2=O)=C(C#N)C1c1ccc(O)cc1` (stereo not shown) [CBK217780] was 103%; that for `CN1CCN(C(=O)c2n[nH]c3c2CCCC3)C(Cc2ccc(-c3cccs3)cc2)C1=O` (stereo not shown) [CBK285812] was 101%.
The value for `O=C(OCCc1ccncc1)N1CCc2ccccc21` [CBK200140] was 94.9%.
The value for `N#Cc1cccc(C(=O)N2CCCN(Cc3ccc(Cl)cc3)CC2)c1` [CBK305323] was 95.9%.
In the case of `CCCCCCSc1ccc(C(=O)CCCN2CCOCC2)cc1` [CBK010344], the viability at 28.5 h, 10 µM amounted to 116%.
The figure for `Cc1ccccc1-c1cc(C(=O)NCCCn2cc(Br)cn2)c2ccccc2n1` [CBK267758] is 97.8%.
